Results taken from patent US5767278A, “Telomerase inhibitors” (Geron Corporation, priority 1995, dated 1998).

Key:
telomerase = target: T1, telomerase (Homo sapiens, UniProt O14746); assay: Inhibition of telomerase activity (IC50); assay type: biochemical
T1 construct: placing cells, tissues, or preferably a cellular extract or other preparation containing telomerase in contact with; endogenous in cells
Description: One method used to identify compounds of the invention that inhibit telomerase activity involves placing cells, tissues, or preferably a cellular extract or other preparation containing telomerase in contact with several known concentrations of a test compound in a buffer compatible with telomerase activity. […] Other methods for determining the inhibitory concentration of a compound of the invention against telomerase can be employed as will be apparent to those of skill in the art based on the disclosure herein.
With the above-described methods, IC50 values for several of the compounds of the present invention were determined. The values reported in Table 3 below are only approximate values; more exact IC50 values can be obtained by repetitive testing.

[1] = Half-life of Compound XIV; assay type: in vitro ADME; conditions: additional data suggest; on the order of about
[2] = system: telomerase-positive cells; assay: Telomere length in telomerase-positive cells treated with Compound XIV (one uncontrolled experiment); assay type: cell-based; conditions: dosing period of about 48 hours
Experimental: Colonies of the tumor cell lines, such as the ovarian tumor cell lines OVCAR-5 and SK-OV-3, and normal human cells used as a control (e.g., normal human BJ cells) are prepared using standard methods and materials. In one test, the colonies are prepared by seeding 15-centimeter dishes with about 10^6 cells in each dish. The dishes are incubated to allow the cell colonies to grow to about 80% confluence, at which time each of the colonies are divided into two groups. One group is exposed to a subacute dose of a compound of the invention at a predetermined concentration (e.g., between about 5 μM and about 20 μM) for a period of about 4-8 hours after plating following the split; the other group is exposed to a control (e.g., DMSO).
Each group is then allowed to continue to divide, and the groups are split evenly again (near confluence). The same number of cells are seeded for continued growth. The compound or control is added every fourth day to the samples at the same concentration delivered initially. Remaining cells are analyzed for telomere length. As the untested cell cultures near confluence, the samples are split again as just described. […]
Telomere length is determined by digesting the DNA of the cells using restriction enzymes specific for sequences other than the repetitive T2 AG3 sequence of human telomeres. […]

[3] = Table 3, only approximate values
[4] = approximate IC50 values, summary of the table

T1 sequence (O14746 whole entry): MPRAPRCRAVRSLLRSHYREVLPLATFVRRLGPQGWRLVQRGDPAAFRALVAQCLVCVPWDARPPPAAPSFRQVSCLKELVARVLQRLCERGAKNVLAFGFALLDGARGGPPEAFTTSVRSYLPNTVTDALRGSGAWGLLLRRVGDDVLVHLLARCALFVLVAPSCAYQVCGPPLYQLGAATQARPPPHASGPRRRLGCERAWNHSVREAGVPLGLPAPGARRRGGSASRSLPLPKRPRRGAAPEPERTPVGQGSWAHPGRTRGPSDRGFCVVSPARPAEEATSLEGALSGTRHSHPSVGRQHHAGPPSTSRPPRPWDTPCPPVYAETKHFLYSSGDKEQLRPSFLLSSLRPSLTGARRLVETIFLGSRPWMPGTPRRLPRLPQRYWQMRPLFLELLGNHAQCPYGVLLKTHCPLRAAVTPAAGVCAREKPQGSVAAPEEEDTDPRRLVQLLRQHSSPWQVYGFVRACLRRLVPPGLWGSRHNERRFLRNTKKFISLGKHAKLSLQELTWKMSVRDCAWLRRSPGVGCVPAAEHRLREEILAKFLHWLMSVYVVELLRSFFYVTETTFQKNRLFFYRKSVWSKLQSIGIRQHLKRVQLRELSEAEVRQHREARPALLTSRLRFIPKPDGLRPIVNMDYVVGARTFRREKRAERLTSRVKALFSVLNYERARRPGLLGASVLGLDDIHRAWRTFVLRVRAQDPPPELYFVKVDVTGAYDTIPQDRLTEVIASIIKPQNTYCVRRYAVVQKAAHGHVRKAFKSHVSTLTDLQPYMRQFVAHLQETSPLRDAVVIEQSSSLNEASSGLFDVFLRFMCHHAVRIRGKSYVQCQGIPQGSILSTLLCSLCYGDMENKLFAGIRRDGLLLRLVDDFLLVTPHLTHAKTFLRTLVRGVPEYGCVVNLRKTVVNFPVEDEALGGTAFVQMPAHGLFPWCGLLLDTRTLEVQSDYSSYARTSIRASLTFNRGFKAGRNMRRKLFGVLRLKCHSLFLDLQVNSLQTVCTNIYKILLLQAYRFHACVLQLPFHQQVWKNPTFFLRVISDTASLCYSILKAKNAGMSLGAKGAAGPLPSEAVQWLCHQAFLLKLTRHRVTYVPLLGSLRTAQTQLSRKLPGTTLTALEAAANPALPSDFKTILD
T1 sequence (O60832 whole entry partner): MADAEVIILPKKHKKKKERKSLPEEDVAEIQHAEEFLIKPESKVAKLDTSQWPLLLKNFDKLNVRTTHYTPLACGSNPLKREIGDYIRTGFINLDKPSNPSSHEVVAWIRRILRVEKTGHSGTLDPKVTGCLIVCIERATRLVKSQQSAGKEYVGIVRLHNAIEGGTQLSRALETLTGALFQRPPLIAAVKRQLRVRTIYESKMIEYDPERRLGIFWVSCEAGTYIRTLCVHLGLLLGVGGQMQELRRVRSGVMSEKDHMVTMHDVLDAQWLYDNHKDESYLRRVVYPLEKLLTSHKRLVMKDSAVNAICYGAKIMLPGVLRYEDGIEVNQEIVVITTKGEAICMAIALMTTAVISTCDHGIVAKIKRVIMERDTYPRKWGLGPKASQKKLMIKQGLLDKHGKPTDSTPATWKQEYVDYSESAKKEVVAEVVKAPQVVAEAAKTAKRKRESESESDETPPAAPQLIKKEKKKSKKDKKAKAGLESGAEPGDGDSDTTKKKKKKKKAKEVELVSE
T1 sequence (Q9NPE3 whole entry partner): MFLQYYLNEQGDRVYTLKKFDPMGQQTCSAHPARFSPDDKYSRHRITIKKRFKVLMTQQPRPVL
T1 sequence (Q9NX24 whole entry partner): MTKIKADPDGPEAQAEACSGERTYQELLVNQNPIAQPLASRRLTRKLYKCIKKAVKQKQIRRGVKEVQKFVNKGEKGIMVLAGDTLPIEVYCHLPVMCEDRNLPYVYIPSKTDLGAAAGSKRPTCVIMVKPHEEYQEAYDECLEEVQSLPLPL
T1 sequence (Q9NY12 whole entry partner): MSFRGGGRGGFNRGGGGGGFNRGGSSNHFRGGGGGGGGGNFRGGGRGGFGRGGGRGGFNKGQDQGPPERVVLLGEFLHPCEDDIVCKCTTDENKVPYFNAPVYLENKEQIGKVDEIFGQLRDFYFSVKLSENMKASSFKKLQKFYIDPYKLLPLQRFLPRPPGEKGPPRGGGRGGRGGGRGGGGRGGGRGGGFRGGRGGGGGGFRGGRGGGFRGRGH

Compound | IC50 (telomerase; [3]) | also measured
N#Cc1ccc(C=Nc2ccc(Br)cn2)nc1SCc1ccc(Cl)s1 [Compound LII] | < 3.2 µM | IC50 (telomerase; [4]): < 5 µM
Cc1ccc(NN=Cc2ccc(C#N)c(SCc3ccc(Cl)c(Cl)c3)n2)cc1 [Compound LIV] | 17 µM | 
N#Cc1ccc(C=NNC(=S)Nc2ccc(F)cc2)nc1SCc1ccc(Cl)c(Cl)c1 [Compound LVII] | 18 µM | 
Cc1ccc(NC(=S)NN=Cc2ccc(C#N)c(SCc3ccc(Cl)c(Cl)c3)n2)cc1 [Compound LVI] | 18 µM | 
N#Cc1ccc(C=NNc2ccc(Cl)cc2)nc1SCc1ccc(Cl)c(Cl)c1 [Compound LV] | 19.2 µM | 
Cc1cccnc1N=Cc1ccc(C#N)c(SCc2ccc(Cl)c(Cl)c2)n1 [Compound XIV] | < 3.2 µM | half-life [1]: ~12 h; shorting of telomere length [2]: No significant shorting of telomere length was observed; IC50 (telomerase; [4]): < 5 µM
Cc1cccnc1N=Cc1ccc(C#N)c(SCc2ccccc2C(F)(F)F)n1 [Compound XIX] | 3 µM | 
Cc1cccnc1N=Cc1ccc(C#N)c(SCc2ccc3c(c2)C(C)(C)CCC3(C)C)n1 [Compound XLIII] | < 3.2 µM | IC50 (telomerase; [4]): < 5 µM
Cc1cccnc1N=Cc1ccc(C#N)c(SCc2ccccc2-c2ccccc2)n1 [Compound XVIII] | 2 µM | 
Cc1cccnc1N=Cc1ccc(C#N)c(SCc2cc(C(F)(F)F)cc(C(F)(F)F)c2)n1 [Compound XVII] | 2 µM | 
Cc1ccnc(N=Cc2ccc(C#N)c(SCc3ccc(Cl)c(Cl)c3)n2)c1 [Compound XV] | 8 µM | 
Cc1cccnc1N=Cc1ccc(C#N)c(SCc2ccccc2Br)n1 [Compound XXIII] | 2 µM | 
Cc1cccnc1N=Cc1ccc(C#N)c(SCc2ccc(-c3ccccc3)cc2)n1 [Compound XXII] | 2 µM | 
Cc1ccc(C)c(CSc2nc(C=Nc3ncccc3C)ccc2C#N)c1 [Compound XXVI] | 0.9 µM | 
Cc1cccnc1N=Cc1ccc(C#N)c(SCc2cc(Cl)cc(Cl)c2)n1 [Compound XXXII] | < 3.2 µM | 
Cc1ccc(CSc2nc(C=Nc3ncccc3C)ccc2C#N)c(C)c1 [Compound XXXI] | < 3.2 µM | 
Cc1cccnc1N=Cc1ccc(C#N)c(SCc2cc(Cl)cc(Cl)c2)n1 [Compound XXXVII] |  | IC50 (telomerase; [4]): < 5 µM
Cc1cccnc1N=Cc1ccc(C#N)c(SCc2ccc(C(C)(C)C)cc2)n1 [Compound XXX] | 2 µM | 
CCN1C(=O)c2ccc(N=Cc3ccc(C#N)c(SCc4ccc(Cl)c(Cl)c4)n3)cc2C1=O [Compound X] | 9 µM | 
N#Cc1ccc(C=Nc2ccc(Cl)cc2)nc1SCc1ccc(Cl)c(Cl)c1 [III] | 6.5 µM | 
Cc1cccnc1N=Cc1ccc(C#N)c(SCC#CCSc2nc(C=Nc3ncccc3C)ccc2C#N)n1 [LXI] | < 3.2 µM | IC50 (telomerase; [4]): < 5 µM
N#Cc1ccc(C=Nc2ccc3c(c2)OCCO3)nc1SCc1ccc(Cl)c(Cl)c1 [VIII] | 10 µM | 
N#Cc1ccc(N=Cc2ccc(C#N)c(SCc3ccc(Cl)c(Cl)c3)n2)cc1Cl [V] | 10 µM | 
Cc1nc(N=Cc2ccc(C#N)c(SCc3ccc(Cl)c(Cl)c3)n2)ccc1Br [XII] | 7 µM | 

More lines, main results first:

IC50 (telomerase; [3]) | Compound | also measured
5 µM | COc1ccc(N=Cc2ccc(C#N)c(SCc3ccc(Cl)s3)n2)nc1 [Compound LIII] | IC50 (telomerase; [4]): < 5 µM
< 3.2 µM | Cc1cccnc1N=Cc1ccc(C#N)c(SCc2csc3ccc(Cl)cc23)n1 [Compound XLVII] | IC50 (telomerase; [4]): < 5 µM
1 µM | Cc1cccnc1N=Cc1ccc(C#N)c(SCc2c(Cl)cccc2Cl)n1 [Compound XVI] | 
3 µM | Cc1ccccc1CSc1nc(C=Nc2ncccc2C)ccc1C#N [Compound XXIV] | 
2 µM | Cc1cc(C)cc(CSc2nc(C=Nc3ncccc3C)ccc2C#N)c1 [Compound XXIX] | 
2 µM | Cc1cccnc1N=Cc1ccc(C#N)c(SCc2ccc(C(C)C)cc2)n1 [Compound XXI] | 
5 µM | Cc1cccnc1N=Cc1ccc(C#N)c(SCc2ccc(C(F)(F)F)cc2C(F)(F)F)n1 [Compound XXVII] | 
4 µM | Cc1cccnc1N=Cc1ccc(C#N)c(SCc2cc(Cl)cc3c2OCOC3)n1 [Compound XXV] | 
8 µM | Cc1cccnc1N=Cc1ccc(C#N)c(SCc2ccc(C=Cc3ccccc3)cc2)n1 [Compound XX] | 
4.9 µM | COc1ccc(N=Cc2ccc(C#N)c(SCc3ccc(Cl)c(Cl)c3)n2)cc1 [IV] | IC50 (telomerase; [4]): < 5 µM
8 µM | N#Cc1ccc(C=Nc2ccc3c(c2)C(=O)N(Cc2ccccc2)C3=O)nc1SCc1ccc(Cl)c(Cl)c1 [IX] | 
12 µM | N#Cc1ccc(C=Nc2ccc(Br)c(C(F)(F)F)c2)nc1SCc1ccc(Cl)c(Cl)c1 [VII] | 
10 µM | N#Cc1ccc(C=Nc2ccc(F)c(F)c2)nc1SCc1ccc(Cl)c(Cl)c1 [VI] | 
7 µM | Cc1ccc(N=Cc2ccc(C#N)c(SCc3ccc(Cl)c(Cl)c3)n2)nc1 [XIII] | 
2 µM | Cc1cccnc1N=Cc1ccc(C#N)c(SCc2cccc(Cl)c2F)n1 [XXVIII] | 
